Measured values from patent publication EP1048652A1, “AROMATIC COMPOUNDS HAVING CYCLIC AMINO OR SALTS THEREOF” (MOCHIDA PHARMACEUTICAL CO., LTD., priority 1997, dated 1999).

How the values were obtained:
rat plasma = experiment: Measuring extrinsic coagulation time (PT) in vitro in rat plasma; conditions: 37°C 3 minutes, thromboplastin reagent, concentration required to double the coagulation time
Procedure: The compounds synthesized in the Examples of the present invention had FXa inhibitory activities at least equal to that of the control compound. 2) Measurement of Anticoagulation Activity (in vitro) a) Measuring extrinsic coagulation time Thromboplastin time (PT) is measured in the presence of test compounds diluted at various concentrations. A test compound diluted with DMSO at various concentrations is mixed with rat plasma and incubated at 37°C for 3 minutes. Then, a thromboplastin reagent is added and the coagulation time is measured. The anticoagulation activity of the test compound is indicated in terms of the concentration required to double the coagulation time for the case where no test compound is added. […]

Human FXa = molecular target: T1, Human FXa (Homo sapiens, UniProt P00742); experiment: Measuring human FXa inhibitory action (chromogenic substrate S-2222); assay type: biochemical; conditions: Human FXa 0.019 U/ml, S-2222 0.4 mM, Tris-HCl buffer (pH 7.5), 37 °C, absorbance at 405 nm
T1 construct: purchased Enzyme Research Laboratories, Inc
T1 sequence (P00742 235-488 limits assumed): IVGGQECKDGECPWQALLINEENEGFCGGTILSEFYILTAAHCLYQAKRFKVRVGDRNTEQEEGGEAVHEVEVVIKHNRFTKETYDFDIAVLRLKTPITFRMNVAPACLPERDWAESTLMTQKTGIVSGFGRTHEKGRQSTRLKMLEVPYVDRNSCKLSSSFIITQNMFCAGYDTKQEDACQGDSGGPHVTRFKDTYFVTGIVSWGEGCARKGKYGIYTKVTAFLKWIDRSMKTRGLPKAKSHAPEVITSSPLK
T1 sequence (P00742 41-179 partner limits assumed): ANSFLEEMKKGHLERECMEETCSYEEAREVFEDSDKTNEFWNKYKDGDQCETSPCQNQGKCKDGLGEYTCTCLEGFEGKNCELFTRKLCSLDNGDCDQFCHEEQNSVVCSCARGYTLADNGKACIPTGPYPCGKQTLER
Procedure: The outstanding FXa inhibitory activity of the compounds of the present invention can be verified by the following tests. 1) Measurement of Enzyme Inhibitory Action a) Measuring human FXa inhibitory action In vitro FXa inhibitory activity is measured in accordance with the method of Kettner et al., J. Biol. Chem., 1990, 265, 18289-18297. Human FXa (Enzyme Research Laboratories, Inc., 0.019 U/ml) is mixed with a test compound diluted with dimethyl sulfoxide (DMSO) at various concentrations and a synthesis substrate S-2222 (Chromogenix AB, 0.4 mM) and incubated in a Tris-HCl buffer (pH 7.5) at 37 °C while the absorbance at 405 nm is measured continuously. To calculate the FXa inhibitory activity of the test cmpound, the initial reaction velocity is compared with the value for a control containing no test compound. The FXa inhibitory activity of a test compound is usually expressed as IC50. The compounds of the present invention were measured for their FXa inhibitory activity by the above-described method and they had potencies between 1 nM and 1µm in terms of IC50. […]

## O=C(O)C1CN(S(=O)(=O)c2ccc3cc(Cl)ccc3c2)CC(=O)N1CC1CCN(c2ccncc2)CC1 (stereo not drawn) [Example 40, 6-carboxy-4-(6-chloronaphthalen-2-ylsulfonyl)-1-[1-(4-pyridyl)piperidin-4-ylmethyl]piperazin-2-one]
Rat plasma
  PT Doubling Concentration: 2.7 µM
Human FXa
  IC50: 7.4 nM

## NC(=O)C1CN(S(=O)(=O)c2ccc3cc(Cl)ccc3c2)CC(=O)N1CC1CCN(c2ccncc2)CC1 (stereo not drawn) [Example 46]
Human FXa
  IC50: 17 nM

## CCOC(=O)C1CN(S(=O)(=O)c2ccc3cc(Cl)ccc3c2)CC(=O)N1CC1CCN(c2ccncc2)CC1 (stereo not drawn) [Example 39, 4-(6-chloronaphthalen-2-ylsulfonyl)-6-ethoxycarbonyl-1-[1-(4-pyridyl)piperidin-4-ylmethyl]piperazin-2-one]
Rat plasma
  PT Doubling Concentration: 2.8 µM
Human FXa
  IC50: 19 nM

## O=C(C1CCN(c2ccncc2)CC1)N1CCN(S(=O)(=O)/C=C/c2ccc(Cl)cc2)CC1 [Control, 1-((E)-4-chlorostyrylsulfonyl)-4-[1-(4-pyridyl)piperidin-4-ylcarbonyl]piperazine, reference compound]
Human FXa
  IC50: 150 nM

## CCOC(=O)[C@@H]1CN(S(=O)(=O)c2ccc3cc(Cl)ccc3c2)CC(=O)N1CC1CCN(c2ccncc2)CC1 [Example 61, (S)-4-(6-chloronaphthalen-2-ylsulfonyl)-6-ethoxycarbonyl-1-[1-(4-pyridyl)piperidin-4-ylmethyl]piperazin-2-one]
Human FXa
  IC50: 70 nM

## O=C1CN(S(=O)(=O)c2ccc3cc(Cl)ccc3c2)CC(C=NO)N1CC1CCN(c2ccncc2)CC1 (stereo not drawn) [Example 47, 6-aldoximyl-4-(6-chloronaphthalen-2-ylsulfonyl)-1-[1-(4-pyridyl)piperidin-4-ylmethyl]piperazin-2-one]
Human FXa
  IC50: 13 nM

## CCOC(=O)[C@H]1CN(S(=O)(=O)c2ccc3cc(Cl)ccc3c2)CC(=O)N1CC1CCN(c2ccncc2)CC1 [Example 60, (R)-4-(6-chloronaphthalen-2-ylsulfonyl)-6-ethoxycarbonyl-1-[1-(4-pyridyl)piperidin-4-ylmethyl]piperazin-2-one]
Human FXa
  IC50: 16 nM

## NCC1CN(S(=O)(=O)c2ccc3cc(Cl)ccc3c2)CC(=O)N1CC1CCN(c2ccncc2)CC1 (stereo not drawn) [Example 52, 6-aminomethyl-4-(6-chloronaphthalen-2-ylsulfonyl)-1-[1-(4-pyridyl)piperidin-4-ylmethyl]piperazin-2-one]
Human FXa
  IC50: 12 nM

## CN(C)CC1CN(S(=O)(=O)c2ccc3cc(Cl)ccc3c2)CC(=O)N1CC1CCN(c2ccncc2)CC1 (stereo not drawn) [Example 54, 4-(6-chloronaphthalen-2-ylsulfonyl)-6-dimethylaminomethyl-1-[1-(4-pyridyl)piperidin-4-ylmethyl]piperazin-2-one]
Human FXa
  IC50: 8.5 nM

## CC(=O)NCC1CN(S(=O)(=O)c2ccc3cc(Cl)ccc3c2)CC(=O)N1CC1CCN(c2ccncc2)CC1 (stereo not drawn) [Example 55, 6-acetamidomethyl-4-(6-chloronaphthalen-2-ylsulfonyl)-1-[1-(4-pyridyl)piperidin-4-ylmethyl]piperazin-2-one]
Human FXa
  IC50: 7.4 nM
